In publication PMC5707067, “Farnesyl phenolic enantiomers as natural MTH1 inhibitors from Ganoderma sinense” (Oncotarget, 2017):

Experiments:
SW620 cells = assay: Apoptosis analysis (Annexin V/PI flow cytometry); type: cell-based, human; details: 24 hours, control group 12.03%
Procedure: The apoptosis of cells induced by compounds was further investigated. SW620 cells were pretreated with series concentration of compound 1 for 24 hours. The number of apoptosis cells was quantified by flow cytometry.
Figure 5 Compound 1 induced DNA damage and hindered the replication of DNA in cancer cells causing cell apoptosis (A) SW620 cells were treated with 0, 50 or 150 μM of compound 1 and then processed for FACS by using Annexin V/propidium iodide staining. (B, C) Immunofluorescence staining analysis of EDU^+ and quantification of EDU^+ in SW620 cells treated with 0, 50 or 150 μM of compound 1. Stained graphs were observed through a fluorescence microscope (× 200 magnification). Bar = 20 μm. Data are shown as mean ± s.d. (n = 3). (D, E, F) Immunofluorescence staining analysis of 53BP1 and quantification of 53BP1 foci formation in SW620 treated for 24 h with 50 μM of compound 1. It was observed through a confocal microscope (× 400 magnification). Bar = 50 μm Data are shown as mean ± s.d. (n = 3). […]
Apoptotic cells were staining with Annexin-V-FITC and Propidium Iodide (PI) (Annexin V-FITC/PI double staining cell apoptosis detection kit) following the manufacturer's protocol. Fluorescence was recorded by flow cytometry using the FACSort (BD Bio sciences).

[1] = test system: MTH1 siRNA transfected SW620 cells; assay: CCK8 growth assay in MTH1 siRNA transfected cells; type: cell-based, human
Procedure: In order to study whether the cytotoxicity of the farnesyl phenolic compounds was due to the inhibition of MTH1, the expression of endogenous MTH1 was knocked down in cancer cells. SW620 cell lines were transfected with MTH1 siRNA (#1, #2 and #3), [2] while the control was transfected with non-targeting siRNA (NT). The expression levels of MTH1 were measured by Western blot assay (Figure 6A and 6B), both siRNA #2 and #3 knocked down expressions of MTH1 in SW620 cells. The effects of compound 1 on the growth of MTH1 siRNA (#2 and #3) and non-targeting siRNA transfected cells were assessed by CCK8 assay.
Figure 6 The specific binding of compound 1 to the MTH1 protein leads to cell growth inhibition (A, B) Western blot analysis and optical density analysis for the expression of MTH1 for the siRNA transfected cells. MTH1 siRNA #2 and #3 were both knocked down in SW620 cells compared with the non-target siRNA (NT). (C) The effects of compound 1 on the growth of MTH1 siRNA (#2 and #3) and non-targeting siRNA transfected cells were assessed by CCK8 assay. […] (D) The effects of compounds 1 on normal tissue cell lines [human hepatic cells (Lo2), African green monkey kidney vero cells (Vero)]. (E, F) Cellular thermal shift assay (CETSA) confirmed the binding capacity of compound 1 with MTH1 at the cellular level. […]

MTH1 [2] = target: T1, MTH1 (Homo sapiens, UniProt P36639); assay: Microscale thermophoresis (MST) binding assay
Procedure: Microscale thermophoresis method (MST) was employed to assay the binding affinity between the compounds and MTH1. […] The dissociation constant Kd values were automatically calculated by using the NT Analysis software (Nano Temper Technologies, München, Germany).
Recombinant human MTH1 was labeled with the Monolith NT™ Protein Labeling Kit RED (Cat#L001) according to the supplied labeling protocol [32]. Labelled MTH1 was kept constant at 100 nM, while all samples tested were diluted in a 20 mM HEPES (pH 7.5) and 0.05 (v/v) % Tween-20. Compounds were diluted in 12 dilution steps covering the range from 500 μM to 200 nM. After 10 min incubation at room temperature about 37°C, samples were loaded into Monolith™ standard-treated capillaries and the thermophoresis was measured at 25°C after 30 min incubation on a Monolith NT.115 instrument (NanoTemper Technologies, München, Germany). Laser power was set to 20% using 30 seconds on-time. The LED power was set to 100%. The dissociation constant Kd values were fitted by using the NTAnalysis software (NanoTemper Technologies, München, Germany). The Kd value of the binding was obtained in two ways. The first way was calculated by thermophoresis curve when there was no fluorescent change during the initial fluorescence scanning. The second way was calculated from the initial fluorescence scanning curve when compounds bound in the sites which directly interfered the fluorescence.

MTH1 [3] = target: T1, MTH1; assay: Enzyme inhibition assay (8-oxo-dGTP hydrolysis, HPLC); type: biochemical; parameters: hexa-histidine (His6) (N, cleaved yes); made in house; host or cells: E. coli BL21 Star; details: 8-oxo-dGTP 25 μM, purified MTH1
Procedure: Microscale thermophoresis method (MST) was employed to assay the binding affinity between the compounds and MTH1. This technology can quantify protein-protein interactions or protein-small molecule interactions with high sensitivity through detecting fluorescent changes of molecules during thermophoresis.
To identify the efficacy of the eight compounds, an enzyme inhibition assay was carried out. […] Then the reaction was stop by the addition of 20 μL ice-cold Na2EDTA (50 mM). The reaction mixture was centrifugated at 15000 rpm at 4°C for 10 min. 20 μL of supernatant was injected on an HPLC column (Ultimate AQ-C18 RP-18e, 250 mm × 4.6 mm × 5 μm), and eluted isolate with 100 mM Na2HPO4-NaOH (pH 5.5)/MeOH 95:5 with flow rate 1 mL/min at column room of 30°C. […] Measurements were done in triplet, and IC50 values were calculated to compare the efficiency of various compounds.

- Kd (MTH1 [2]): 4.71 ± 0.686 µM
- IC50 (MTH1 [3]): 10.9 ± 1.04 µM
Compound: CO[C@]1(c2cc(O)cc(O)c2)C=C(CCCC(CO)CC/C=C(\C)COC(=O)/C=C/c2ccc(O)cc2)C(=O)O1 (stereo partly drawn) [Compound 1, (5R)-3-{9-[(E)-coumaroyl]-4-hydroxymethyl-8-methyl-7-nonene}-5-(3,5-dihydroxyphenyl)-5-methoxy-2(5H)-furanone]
- SW620 cells apoptotic death (SW620 cells; 50 μM): 45.09%
- SW620 cells apoptotic death (SW620 cells; 150 μM): 91.11%
- growth inhibition of MTH1 siRNA (#2 and #3) vs non-targeting siRNA transfected cells [1]: resistant to the growth inhibition
